Biological target: T1, chymotrypsin-like activity of 20S proteasome (Bos taurus, UniProt Q2TBX6+Q32KL2)
T1 construct: was purified to homogeneity from bovine brain according to published methods; from tissue; host or cells: bovine brain
Assay: 20S proteasome chymotryptic activity inhibition assay (Suc-Leu-Leu-Val-Tyr-AMC cleavage)
Type: biochemical
Details: 2 μg 20S proteasome from bovine brain, 50 μM fluorogenic substrate, 15 minutes at 37° C., pH7.5
Description: Compounds of this invention prepared according to the method of Example 1 were tested as follows. The 20S catalytic subunit of the proteasome (also known as the multicatalytic proteinase complex) was purified to homogeneity from bovine brain according to published methods (Wilk S. and Orlowski,M 1983, 40 842 J.Neurochem). The chymotryptic activity of the complex is measured by the increase in fluorescence following cleavage of the substrate peptide succinyl-leucine-leucine-valine-tyrosine-7-amino-4methyl coumarin. The standard in vitro assay consists of 2 μg 20S proteasome, 0.1-100 μg/ml proteasome inhibitor in 200 μl 50 mM HEPES, containing 0.1% sodium dodecyl sulphate, pH7.5. The proteolytic reaction is initiated by the addition of 50 μM flourogenic peptide substrate and allowed to progress for 15 minutes at 37° C. The reaction is terminated by the addition of 100 μL of 100 mM acetate buffer, pH4.0. The rate of proteolysis is directly proportional to the amount of liberated aminomethylcoumarin which is measured by fluorescent spectroscopy (EX 370 nm, EM 430 nm).

IC50 for the inhibition of the chymotrypsin-like activity of 20S proteasome | IC50 | SMILES
>10 µg/mL | – | CC(C)CC(NC(=O)C(CC1CCCCC1)NC(=O)C(=O)Cc1c[nH]c2ccccc12)C(=O)NC(CO)C(=O)O (stereo not drawn) [Compound 100]
>10 µg/mL | – | CC(C)CC(NC(=O)C(Cc1cccnc1)NC(=O)C(=O)Cc1c[nH]c2ccccc12)C(=O)NC(CO)C(=O)O (stereo not drawn) [Compound 101]
>10 µg/mL | – | CC(C)CC(NC(=O)C(Cc1ccc(-c2ccccc2)cc1)NC(=O)C(=O)Cc1c[nH]c2ccccc12)C(=O)NC(CO)C(=O)O (stereo not drawn) [Compound 103]
>10 µg/mL | – | CC(C)CC(NC(=O)CNC(=O)C(=O)Cc1c[nH]c2ccccc12)C(=O)NC(Cc1ccccc1)C(=O)O (stereo not drawn) [Compound 104]
>10 µg/mL | – | CC(C)CC(NC(=O)CCNC(=O)C(=O)Cc1c[nH]c2ccccc12)C(=O)NC(Cc1ccccc1)C(=O)O (stereo not drawn) [Compound 105]
>10 µg/mL | – | CCCCC(NC(=O)C(=O)Cc1c[nH]c2ccccc12)C(=O)NC(CC(C)C)C(=O)NC(Cc1ccccc1)C(=O)O (stereo not drawn) [Compound 106]
>10 µg/mL | – | CC(C)CC(NC(=O)C(Cc1ccccc1)NC(=O)C(=O)Cc1c[nH]c2ccccc12)C(=O)NC(Cc1ccccc1)C(=O)O (stereo not drawn) [Compound 107]
>10 µg/mL | – | CC(C)CC(NC(=O)C(NC(=O)C(=O)Cc1c[nH]c2ccccc12)C(C)O)C(=O)NC(Cc1ccccc1)C(=O)O (stereo not drawn) [Compound 108]
>10 µg/mL | – | CC(C)CC(NC(=O)C(C)NC(=O)C(=O)Cc1c[nH]c2ccccc12)C(=O)NC(Cc1ccccc1)C(=O)O (stereo not drawn) [Compound 109]
>10 µg/mL | – | CC(C)CC(NC(=O)C(CC(=O)O)NC(=O)C(=O)Cc1c[nH]c2ccccc12)C(=O)NC(Cc1ccccc1)C(=O)O (stereo not drawn) [Compound 110]
>10 µg/mL | – | CC(C)CC(NC(=O)C(NC(=O)C(=O)Cc1c[nH]c2ccccc12)C(C)C)C(=O)NC(Cc1ccccc1)C(=O)O (stereo not drawn) [Compound 111]
>10 µg/mL | – | CC(C)CC(NC(=O)C(Cc1ccc(O)cc1)NC(=O)C(=O)Cc1c[nH]c2ccccc12)C(=O)NC(Cc1ccccc1)C(=O)O (stereo not drawn) [Compound 113]
>10 µg/mL | – | CCCCC(NC(=O)C(CC(C)C)NC(=O)CNC(=O)C(=O)Cc1c[nH]c2ccccc12)C(=O)O (stereo not drawn) [Compound 119]
>10 µg/mL | – | CCCCC(NC(=O)C(CC(C)C)NC(=O)CCNC(=O)C(=O)Cc1c[nH]c2ccccc12)C(=O)O (stereo not drawn) [Compound 120]
>10 µg/mL | – | CCCCC(NC(=O)C(CC(C)C)NC(=O)C(CCCC)NC(=O)C(=O)Cc1c[nH]c2ccccc12)C(=O)O (stereo not drawn) [Compound 121]
>10 µg/mL | – | CCCCC(NC(=O)C(CC(C)C)NC(=O)C(Cc1ccccc1)NC(=O)C(=O)Cc1c[nH]c2ccccc12)C(=O)O (stereo not drawn) [Compound 122]
>10 µg/mL | – | CCCCC(NC(=O)C(CC(C)C)NC(=O)C(NC(=O)C(=O)Cc1c[nH]c2ccccc12)C(C)O)C(=O)O (stereo not drawn) [Compound 123]
>10 µg/mL | – | CCCCC(NC(=O)C(CC(C)C)NC(=O)C(C)NC(=O)C(=O)Cc1c[nH]c2ccccc12)C(=O)O (stereo not drawn) [Compound 124]
– | > 18.4 µM | CCCC[C@H](NC(=O)[C@@H](CC(C)C)NC(=O)[C@H](CC(=O)O)NC(=O)C(=O)Cc1c[nH]c2ccccc12)C(=O)O [Compound 125]
>10 µg/mL | – | CCCCC(NC(=O)C(CC(C)C)NC(=O)C(NC(=O)C(=O)Cc1c[nH]c2ccccc12)C(C)C)C(=O)O (stereo not drawn) [Compound 126]
– | > 18.9 µM | CCCCC(NC(=O)C(CC(C)C)NC(=O)C(CCC)NC(=O)C(=O)Cc1c[nH]c2ccccc12)C(=O)O (stereo not drawn) [Compound 127]
>10 µg/mL | – | CCCCC(NC(=O)C(CC(C)C)NC(=O)C(Cc1ccc(O)cc1)NC(=O)C(=O)Cc1c[nH]c2ccccc12)C(=O)O (stereo not drawn) [Compound 128]
>10 µg/mL | – | CC(C)CC(NC(=O)CNC(=O)C(=O)Cc1c[nH]c2ccccc12)C(=O)NC(CC(=O)O)C(=O)O (stereo not drawn) [Compound 134]
>10 µg/mL | – | CC(C)CC(NC(=O)CCNC(=O)C(=O)Cc1c[nH]c2ccccc12)C(=O)NC(CC(=O)O)C(=O)O (stereo not drawn) [Compound 135]

IC50 for the inhibition of the chymotrypsin-like activity of 20S proteasome | IC50 | SMILES
>10 µg/mL | – | CCCCC(NC(=O)C(=O)Cc1c[nH]c2ccccc12)C(=O)NC(CC(C)C)C(=O)NC(CC(=O)O)C(=O)O (stereo not drawn) [Compound 136]
>10 µg/mL | – | CC(C)CC(NC(=O)C(Cc1ccccc1)NC(=O)C(=O)Cc1c[nH]c2ccccc12)C(=O)NC(CC(=O)O)C(=O)O (stereo not drawn) [Compound 137]
>10 µg/mL | – | CC(C)CC(NC(=O)C(NC(=O)C(=O)Cc1c[nH]c2ccccc12)C(C)O)C(=O)NC(CC(=O)O)C(=O)O (stereo not drawn) [Compound 138]
>10 µg/mL | – | CC(C)CC(NC(=O)C(C)NC(=O)C(=O)Cc1c[nH]c2ccccc12)C(=O)NC(CC(=O)O)C(=O)O (stereo not drawn) [Compound 139]
>10 µg/mL | – | CCC(NC(=O)C(=O)Cc1c[nH]c2ccccc12)C(=O)NC(CC(C)C)C(=O)NC(CC(=O)O)C(=O)O (stereo not drawn) [Compound 140]
>10 µg/mL | – | CC(C)CC(NC(=O)C(NC(=O)C(=O)Cc1c[nH]c2ccccc12)C(C)C)C(=O)NC(CC(=O)O)C(=O)O (stereo not drawn) [Compound 141]
>10 µg/mL | – | CCCC(NC(=O)C(=O)Cc1c[nH]c2ccccc12)C(=O)NC(CC(C)C)C(=O)NC(CC(=O)O)C(=O)O (stereo not drawn) [Compound 142]
>10 µg/mL | – | CC(C)CC(NC(=O)C(Cc1ccc(O)cc1)NC(=O)C(=O)Cc1c[nH]c2ccccc12)C(=O)NC(CC(=O)O)C(=O)O (stereo not drawn) [Compound 143]
>10 µg/mL | – | CC(C)CC(NC(=O)CCNC(=O)C(=O)Cc1c[nH]c2ccccc12)C(=O)NC(CCC(=O)O)C(=O)O (stereo not drawn) [Compound 150]
>10 µg/mL | – | CCCCC(NC(=O)C(=O)Cc1c[nH]c2ccccc12)C(=O)NC(CC(C)C)C(=O)NC(CCC(=O)O)C(=O)O (stereo not drawn) [Compound 151]
>10 µg/mL | – | CC(C)CC(NC(=O)C(Cc1ccccc1)NC(=O)C(=O)Cc1c[nH]c2ccccc12)C(=O)NC(CCC(=O)O)C(=O)O (stereo not drawn) [Compound 152]
>10 µg/mL | – | CC(C)CC(NC(=O)C(NC(=O)C(=O)Cc1c[nH]c2ccccc12)C(C)O)C(=O)NC(CCC(=O)O)C(=O)O (stereo not drawn) [Compound 153]
>10 µg/mL | – | CC(C)CC(NC(=O)C(C)NC(=O)C(=O)Cc1c[nH]c2ccccc12)C(=O)NC(CCC(=O)O)C(=O)O (stereo not drawn) [Compound 154]
>10 µg/mL | – | CC(C)CC(NC(=O)C(CC(=O)O)NC(=O)C(=O)Cc1c[nH]c2ccccc12)C(=O)NC(CCC(=O)O)C(=O)O (stereo not drawn) [Compound 155]
>10 µg/mL | – | CC(C)CC(NC(=O)C(NC(=O)C(=O)Cc1c[nH]c2ccccc12)C(C)C)C(=O)NC(CCC(=O)O)C(=O)O (stereo not drawn) [Compound 156]
>10 µg/mL | – | CCCC(NC(=O)C(=O)Cc1c[nH]c2ccccc12)C(=O)NC(CC(C)C)C(=O)NC(CCC(=O)O)C(=O)O (stereo not drawn) [Compound 157]
– | > 16.4 µM | CC(C)CC(NC(=O)C(Cc1ccc(O)cc1)NC(=O)C(=O)Cc1c[nH]c2ccccc12)C(=O)NC(CCC(=O)O)C(=O)O (stereo not drawn) [Compound 158]
>10 µg/mL | – | CCC(C)C(NC(=O)C(=O)Cc1c[nH]c2ccccc12)C(=O)NC(CC(C)C)C(=O)NC(CCC(=O)O)C(=O)O (stereo not drawn) [Compound 159]
>10 µg/mL | – | CC(C)CC(NC(=O)C(CC1CCCCC1)NC(=O)C(=O)Cc1c[nH]c2ccccc12)C(=O)NC(CCC(=O)O)C(=O)O (stereo not drawn) [Compound 160]
>10 µg/mL | – | CC(C)CC(NC(=O)C(Cc1cccnc1)NC(=O)C(=O)Cc1c[nH]c2ccccc12)C(=O)NC(CCC(=O)O)C(=O)O (stereo not drawn) [Compound 161]
>10 µg/mL | – | CC(C)CC(NC(=O)C(Cc1ccc2ccccc2c1)NC(=O)C(=O)Cc1c[nH]c2ccccc12)C(=O)NC(CCC(=O)O)C(=O)O (stereo not drawn) [Compound 162]
>10 µg/mL | – | CC(C)CC(NC(=O)C(Cc1ccc(-c2ccccc2)cc1)NC(=O)C(=O)Cc1c[nH]c2ccccc12)C(=O)NC(CCC(=O)O)C(=O)O (stereo not drawn) [Compound 163]
>10 µg/mL | – | CC(C)CC(NC(=O)C(Cc1ccc2ccccc2c1)NC(=O)C(=O)Cc1c[nH]c2ccccc12)C(=O)NC(C(=O)O)C(C)C (stereo not drawn) [Compound 164]
>10 µg/mL | – | CC(C)CC(NC(=O)C(Cc1ccc(-c2ccccc2)cc1)NC(=O)C(=O)Cc1c[nH]c2ccccc12)C(=O)NC(C(=O)O)C(C)C (stereo not drawn) [Compound 165]
